Reference: patent US7732604B2, “Triazolopyrazine derivatives” (Pfizer Inc., priority 2006, dated 2010)

Each molecule was assayed against T1, HGFR (Homo sapiens, UniProt P08581) (assay: HGFR continuous-coupled spectrophotometric assay (tyrosine kinase activity on Met-2 substrate peptide)). Settings: HGFR 50 nM, Met-2 peptide 0.5 mM, ATP 300 μM, 37° C., absorbance 340 nm; read-out: Ki.
T1 construct: purchased Upstate 14-526
Assay type: biochemical

T1 sequence (P08581 974-1390 limits assumed): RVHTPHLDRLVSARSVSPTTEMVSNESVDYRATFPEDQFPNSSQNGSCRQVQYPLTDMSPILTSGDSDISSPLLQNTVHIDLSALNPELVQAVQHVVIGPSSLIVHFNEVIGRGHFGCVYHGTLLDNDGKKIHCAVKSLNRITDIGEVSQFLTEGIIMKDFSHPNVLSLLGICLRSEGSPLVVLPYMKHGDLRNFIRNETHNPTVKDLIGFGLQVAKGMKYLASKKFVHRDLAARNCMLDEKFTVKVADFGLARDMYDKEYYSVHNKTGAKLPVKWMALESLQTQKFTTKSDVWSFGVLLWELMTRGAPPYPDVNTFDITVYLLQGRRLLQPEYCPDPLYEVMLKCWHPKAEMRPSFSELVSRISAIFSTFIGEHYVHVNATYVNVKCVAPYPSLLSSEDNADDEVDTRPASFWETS

`CC1(O)CCN(c2cnc3nnn(Cc4ccc5ncccc5c4)c3n2)CC1` [Example 101, 4-methyl-1-[1-(quino-lin-6-yl-methyl)-1H-[1,2,3]tri-azolo[4,5-b]pyra-zin-6-yl]piperidin-4-ol] was tested. Which Ki did it give?
The Ki was 23 nM.

How did the Ki turn out when `CCc1noc(C2CCN(c3cnc4nnn(Cc5ccc6ncccc6c5)c4n3)CC2)n1` [Example 102, 6-({6-[4-(3-eth-yl-124-oxa-diazol-5-yl)pipe-ridin-1-yl]-1H-[1,2,3]tri-azolo[4,5-b]pyra-zin-1-yl}meth-yl)quinoline] was run?
Its Ki is 24 nM.

`OCC1CCCN1c1cnc2nnn(Cc3ccc4ncccc4c3)c2n1` (stereo not drawn) [Example 103, {1-[1-(quinolin-6-yl-methyl)-1H-[1,2,3]tri-azolo[4,5-b]pyra-zin-6-yl]pyrro-lidin-2-yl}methanol] was tested. Which Ki did it give?
The Ki was 39 nM.

Which Ki does the source give for `O[C@@H]1C[C@H]2CN(c3cnc4nnn(Cc5ccc6ncccc6c5)c4n3)CCN2C1` [Example 105, (7R,8aS)-2-[1-(quino-lin-6-yl-methyl)-1H-[1,2,3]tri-azolo[4,5-b]pyra-zin-6-yl]octa-hydropyrro-lo[12-a]pyra-zin-7-ol] here?
Its Ki is 29 nM.

How did the Ki turn out when `OCCC1(CO)CCN(c2cnc3nnn(Cc4ccc5ncccc5c4)c3n2)C1` (stereo not drawn) [Example 106, 2-{3-(hydroxy-methyl)-1-[1-(quino-lin-6-ylmethyl)-1H-[1,2,3]tri-azolo[4,5-b]pyra-zin-6-yl]pyr-rolidin-3-yl}ethanol] was run?
The Ki was 9 nM.

Which Ki does the source give for `C[C@H]1CN(c2cnc3nnn(Cc4ccc5ncccc5c4)c3n2)C[C@]1(C)CO` [Example 107, {(3R,4R)-3,4-di-methyl-1-[1-(quino-lin-6-yl-methyl)-1H-[1,2,3]tri-azolo[4,5-b]pyra-zin-6-yl]pyrro-lidin-3-yl}meth-anol] here?
The Ki was 47 nM.

Which Ki does the source give for `FC(F)c1nnc2n1CCN(c1cnc3nnn(Cc4ccc5ncccc5c4)c3n1)C2` [Example 108, 6-({6-[3-(di-fluoromethyl)-5,6-di-hydro[1,2,4]tri-azolo[4,3-a]pyrazin-7(8H)-yl]-1H-[1,2,3]tri-azolo[4,5-b]pyra-zin-1-yl}meth-yl)quinoline] here?
Its Ki is 26 nM.

For `CN(C)C(C(N)=O)C1CCN(c2cnc3nnn(Cc4ccc5ncccc5c4)c3n2)CC1` (stereo not drawn) [Example 109, 2-(dimethyl-amino)-2-{1-[1-(quino-lin-6-yl-methyl)-1H-[1,2,3]tri-azolo[4,5-b]pyra-zin-6-yl]pipe-ridin-4-yl}acetamide], which Ki is on record?
Its Ki is 22 nM.

How did the Ki turn out when `OCC[C@H]1CN(c2cnc3nnn(Cc4ccc5ncccc5c4)c3n2)C[C@H]1CO` [Example 110, 2-{(3R,4S)-4-(hydroxy-methyl)-1-[1-(quino-lin-6-yl-methyl)-1H-[1,2,3]tri-azolo[4,5-b]pyra-zin-6-yl]pyrro-lidin-3-yl}eth-anol] was run?
The Ki was 23 nM.

With `CC(=O)NCCNc1cnc2nnn(Cc3ccc4ncccc4c3)c2n1` [Example 111, N-(2-{[1-(quino-lin-6-yl-methyl)-1H-[1,2,3]tri-azolo[4,5-b]pyra-zin-6-yl]ami-no}ethyl)aceta-mide] as the molecule, how does the Ki read?
Its Ki is 27 nM.

Which Ki does the source give for `CCC(CO)Nc1cnc2nnn(Cc3ccc4ncccc4c3)c2n1` (stereo not drawn) [Example 112, 2-{[1-(quinolin-6-yl-methyl)-1H-[1,2,3]tri-azolo[4,5-b]pyra-zin-6-yl]ami-no}butan-1-ol] here?
Its Ki is 29 nM.

For `CC(O)CNc1cnc2nnn(Cc3ccc4ncccc4c3)c2n1` (stereo not drawn) [Example 113, 1-{[1-(quinolin-6-yl-methyl)-1H-[1,2,3]tri-azolo[4,5-b]pyra-zin-6-yl]ami-no}propan-2-ol], which Ki is on record?
Its Ki is 8 nM.

For `C[C@@H](O)CNc1cnc2nnn(Cc3ccc4ncccc4c3)c2n1` [Example 114, (2R)-1-{[1-(quino-lin-6-yl-methyl)-1H-[1,2,3]tri-azolo[4,5-b]pyra-zin-6-yl]ami-no}propan-2-ol], which Ki is on record?
Its Ki is 40 nM.

With `O=c1[nH]cccc1CNc1cnc2nnn(Cc3ccc4ncccc4c3)c2n1` [Example 115, 3-({[1-(quinolin-6-yl-methyl)-1H-[1,2,3]tri-azolo[4,5-b]pyra-zin-6-yl]ami-no}meth-yl)pyridin-2(1H)-one] as the molecule, how does the Ki read?
Its Ki is 12 nM.

`CC[C@H](CO)Nc1cnc2nnn(Cc3ccc4ncccc4c3)c2n1` [Example 116, (2R)-2-{[1-(quino-lin-6-yl-methyl)-1H-[1,2,3]tri-azolo[4,5-b]pyra-zin-6-yl]ami-no}butan-1-ol] was tested. Which Ki did it give?
The Ki was 10 nM.

Which Ki does the source give for `C[C@H](O)CNc1cnc2nnn(Cc3ccc4ncccc4c3)c2n1` [Example 117, (2S)-1-{[1-(quino-lin-6-yl-methyl)-1H-[1,2,3]tri-azolo[4,5-b]pyra-zin-6-yl]ami-no}propan-2-ol] here?
Its Ki is 11 nM.

How did the Ki turn out when `C[C@@H](CO)Nc1cnc2nnn(Cc3ccc4ncccc4c3)c2n1` [Example 118, (2S)-2-{[1-(quino-lin-6-yl-methyl)-1H-[1,2,3]tri-azolo[4,5-b]pyra-zin-6-yl]ami-no}propan-1-ol] was run?
Its Ki is 41 nM.

With `OC[C@@H]1CC=CC[C@@H]1Nc1cnc2nnn(Cc3ccc4ncccc4c3)c2n1` [Example 119, [(1S,6R)-6-{[1-(quino-lin-6-yl-methyl)-1H-[1,2,3]tri-azolo[4,5-b]pyra-zin-6-yl]ami-no}cyclohex-3-en-1-yl]meth-anol] as the molecule, how does the Ki read?
Its Ki is 30 nM.

How did the Ki turn out when `CN(C)C(=O)CCNc1cnc2nnn(Cc3ccc4ncccc4c3)c2n1` [Example 121, N,N-dimethyl-N~3~-[1-(quino-lin-6-yl-methyl)-1H-[1,2,3]tri-azolo[4,5-b]pyra-zin-6-yl]-beta-alaninamide] was run?
Its Ki is 22 nM.

How did the Ki turn out when `c1cnc2ccc(Cn3nnc4ncc(NCc5cnn6cccnc56)nc43)cc2c1` [Example 122, N-(pyrazolo[15-a]pyrimi-din-3-yl-methyl)-1-(quino-lin-6-yl-methyl)-1H-[1,2,3]tri-azolo[4,5-b]pyra-zin-6-amine] was run?
Its Ki is 25 nM.

Which Ki does the source give for `c1cnc2ccc(Cn3nnc4ncc(NC5CCOC5)nc43)cc2c1` (stereo not drawn) [Example 123, 1-(quinolin-6-yl-methyl)-N-(tetra-hydrofuran-3-yl)-1H-[1,2,3]tri-azolo[4,5-b]pyra-zin-6-amine] here?
The Ki was 8 nM.

With `c1cnc2ccc(Cn3nnc4ncc(NCc5cc(C6CC6)[nH]n5)nc43)cc2c1` [Example 124, N-[(5-cyclo-propyl-1H-pyra-zol-3-yl)meth-yl]-1-(quino-lin-6-yl-methyl)-1H-[1,2,3]tri-azolo[4,5-b]pyra-zin-6-amine] as the molecule, how does the Ki read?
Its Ki is 35 nM.

`CNC(=O)CCNc1cnc2nnn(Cc3ccc4ncccc4c3)c2n1` [Example 125] was tested. Which Ki did it give?
Its Ki is 15 nM.

Which Ki does the source give for `CC(=O)N1CC[C@@H](Nc2cnc3nnn(Cc4ccc5ncccc5c4)c3n2)C1` [Example 126, N-[(3R)-1-acetyl-pyrrolidin-3-yl]-1-(quino-lin-6-yl-methyl)-1H-[1,2,3]tri-azolo[4,5-b]pyra-zin-6-amine] here?
The Ki was 16 nM.

How did the Ki turn out when `OC[C@@H]1C[C@H]1CNc1cnc2nnn(Cc3ccc4ncccc4c3)c2n1` [Example 127, [(1R,2R)-2-({[1-(quino-lin-6-yl-methyl)-1H-[1,2,3]tri-azolo[4,5-b]pyra-zin-6-yl]ami-no}methyl)cyclo-propyl]methanol] was run?
The Ki was 40 nM.

Same assay, conditions: Ki, HGFR 50 nM, Met-2 peptide 0.5 mM, ATP 300 μM, 37° C., absorbance 340 nm

Which Ki does the source give for `c1cnc2ccc(Cn3nnc4ncc(N5CCc6nc[nH]c6C5)nc43)cc2c1` [Example 100, 6-{[6-(3,4,6,7-tetra-hydro-5H-imi-dazo[4,5-c]pyri-din-5-yl)-1H-[1,2,3]tri-azolo[4,5-b]pyra-zin-1-yl]meth-yl}quinoline] here?
The Ki was 37 nM.

How did the Ki turn out when `Cc1nccn1CC1(O)CCN(c2cnc3nnn(Cc4ccc5ncccc5c4)c3n2)C1` (stereo not drawn) [Example 104, 3-[(2-methyl-1H-imi-dazol-1-yl)meth-yl]-1-[1-(quino-lin-6-yl-methyl)-1H-[1,2,3]tri-azolo[4,5-b]pyra-zin-6-yl]pyrro-lidin-3-ol] was run?
The Ki was 49 nM.
